In patent US10253052B2, “HBED-bisphosphonates, radiometal conjugates and their use as theranostic agents” (Five Eleven Pharma Inc., priority 2015, dated 2019):
Values joined by “and” are separate entries in the source; they are usually repeats but may differ in a detail not shown here. Identical values can stand only once.

What was measured:
[1] = In vivo biodistribution in mice; design: species or system normal CD-1 male mice; conditions: for bone to blood ratio / bone to muscle ratio / Biodistribution: Blood / Biodistribution: Bone / Biodistribution: Brain / Biodistribution: Heart / Biodistribution: Kidney / Biodistribution: Liver / Biodistribution: Lung / Biodistribution: Muscle / Biodistribution: Pancreas / Biodistribution: Skin / Biodistribution: Spleen: iv
Method: Biodistribution experiments were performed by intravenously administering ^68Ga labeled 1a-h, 2, 3, BPAMD, and [^18F]NaF into normal, healthy male CD-1 mice (25-30 g). The injection activity was 20-30 μCi/animal. […] Organs of interest were harvested, weighed, and counts of radioactivity were measured by a gamma counter. The biodistribution of each sample was calculated as a percentage of the injected dose per gram of wet tissue weight (% ID/g). Tibia and femur bones were harvested and counted as bone samples.

[2] = In vitro binding to hydroxyapatite; conditions: 20 mg hydroxyapatite in saline, 10 min at room temperature
Method: Hydroxyapatite (20 mg, Sigma-Aldrich, reagent grade powder) was incubated in isotonic saline (1 mL) for 24 h. Subsequently, either ^68Ga labeled 1a-h, 2, 3, BPAMD, or [^18F]NaF (1 μCi) was added to the hydroxyapatite suspension. After vortexing for 10 seconds, the suspension was incubated for 10 min at room temperature. The samples were then centrifuged at 10,000 rpm for 3 min and the supernatant was removed. The hydroxyapatite fraction was washed twice with saline (1 mL). Radioactivity in the combined supernatants and the hydroxyapatite fraction was measured using a gamma counter. The proportion of the ^68Ga complex binding to hydroxyapatite was determined as percent of ^68Ga absorbed to hydroxyapatite.

O=C([O-])CN(CCN(CC(=O)[O-])Cc1cc(CCC(=O)N[C@@H](CCC(=O)O)C(=O)O)ccc1[O-])Cc1cc(CCC(=O)NC(P(=O)(O)O)P(=O)(O)O)ccc1[O-].[68Ga+3] [[^68Ga]1f]
bone to blood ratio ([1]; 2 min): 1 | bone to muscle ratio ([1]; 2 min): 4 | Biodistribution: Blood ([1]; 2 min post injection): 8.98 ± 0.68 % dose/g | Biodistribution: Bone ([1]; 2 min post injection): 8.62 ± 0.23 % dose/g | Biodistribution: Brain ([1]; 2 min post injection): 0.22 ± 0.00 % dose/g | Biodistribution: Heart ([1]; 2 min post injection): 3.53 ± 0.57 % dose/g | Biodistribution: Kidney ([1]; 2 min post injection): 24.7 ± 3.13 % dose/g | Biodistribution: Liver ([1]; 2 min post injection): 2.43 ± 0.27 % dose/g | Biodistribution: Lung ([1]; 2 min post injection): 5.01 ± 0.81 % dose/g | Biodistribution: Muscle ([1]; 2 min post injection): 2.10 ± 0.12 % dose/g | Biodistribution: Pancreas ([1]; 2 min post injection): 1.96 ± 0.15 % dose/g | Biodistribution: Skin ([1]; 2 min post injection): 2.62 ± 0.11 % dose/g | Biodistribution: Spleen ([1]; 2 min post injection): 2.20 ± 0.26 % dose/g | bone to blood ratio ([1]; 30 min): 33 | bone to muscle ratio ([1]; 30 min): 74 | Biodistribution: Blood ([1]; 30 min (0.5 hr) post injection): 0.52 ± 0.05 % dose/g | Biodistribution: Bone ([1]; 30 min (0.5 hr) post injection): 16.8 ± 1.66 % dose/g | Biodistribution: Brain ([1]; 30 min (0.5 hr) post injection): 0.02 ± 0.00 % dose/g | Biodistribution: Heart ([1]; 30 min (0.5 hr) post injection): 0.23 ± 0.01 % dose/g | Biodistribution: Kidney ([1]; 30 min (0.5 hr) post injection): 2.05 ± 0.52 % dose/g | Biodistribution: Liver ([1]; 30 min (0.5 hr) post injection): 0.28 ± 0.02 % dose/g | Biodistribution: Lung ([1]; 30 min (0.5 hr) post injection): 0.42 ± 0.03 % dose/g | Biodistribution: Muscle ([1]; 30 min (0.5 hr) post injection): 0.23 ± 0.01 % dose/g | Biodistribution: Pancreas ([1]; 30 min (0.5 hr) post injection): 0.15 ± 0.01 % dose/g | Biodistribution: Skin ([1]; 30 min (0.5 hr) post injection): 0.49 ± 0.04 % dose/g | Biodistribution: Spleen ([1]; 30 min (0.5 hr) post injection): 0.22 ± 0.03 % dose/g | bone to blood ratio ([1]; 60 min): 78 | bone to muscle ratio ([1]; 60 min): 222 | Biodistribution: Blood ([1]; 60 min (1 hr) post injection): 0.18 ± 0.04 % dose/g | Biodistribution: Bone ([1]; 60 min (1 hr) post injection): 14.4 ± 3.01 % dose/g | Biodistribution: Brain ([1]; 60 min (1 hr) post injection): 0.01 ± 0.00 % dose/g | Biodistribution: Heart ([1]; 60 min (1 hr) post injection): 0.11 ± 0.01 % dose/g | Biodistribution: Kidney ([1]; 60 min (1 hr) post injection): 1.59 ± 0.72 % dose/g | Biodistribution: Liver ([1]; 60 min (1 hr) post injection): 0.20 ± 0.02 % dose/g | Biodistribution: Lung ([1]; 60 min (1 hr) post injection): 0.21 ± 0.01 % dose/g | Biodistribution: Muscle ([1]; 60 min (1 hr) post injection): 0.06 ± 0.00 % dose/g | Biodistribution: Pancreas ([1]; 60 min (1 hr) post injection): 0.08 ± 0.02 % dose/g | Biodistribution: Skin ([1]; 60 min (1 hr) post injection): 0.15 ± 0.01 % dose/g | Biodistribution: Spleen ([1]; 60 min (1 hr) post injection): 0.12 ± 0.04 % dose/g | bone to blood ratio ([1]; 120 min): 180 | bone to muscle ratio ([1]; 120 min): 374 | Biodistribution: Blood ([1]; 120 min post injection): 0.09 ± 0.01 % dose/g | Biodistribution: Bone ([1]; 120 min post injection): 16.7 ± 1.12 % dose/g | Biodistribution: Brain ([1]; 120 min post injection): 0.01 ± 0.01 % dose/g | Biodistribution: Heart ([1]; 120 min post injection): 0.07 ± 0.01 % dose/g | Biodistribution: Kidney ([1]; 120 min post injection): 1.08 ± 0.20 % dose/g | Biodistribution: Liver ([1]; 120 min post injection): 0.19 ± 0.01 % dose/g | Biodistribution: Lung ([1]; 120 min post injection): 0.13 ± 0.01 % dose/g | Biodistribution: Muscle ([1]; 120 min post injection): 0.04 ± 0.01 % dose/g | Biodistribution: Pancreas ([1]; 120 min post injection): 0.04 ± 0.00 % dose/g | Biodistribution: Skin ([1]; 120 min post injection): 0.09 ± 0.01 % dose/g | Biodistribution: Spleen ([1]; 120 min post injection): 0.08 ± 0.01 % dose/g | Hydroxyapatite Binding (%) [2]: 96.4 ± 1.2%

O=C([O-])CN(CCN(CC(=O)[O-])Cc1cc(CCC(=O)NC(P(=O)(O)O)P(=O)(O)O)ccc1[O-])Cc1cc(CCC(=O)NCCNC(=O)CN2CCN(CC(=O)O)CCN(CC(=O)O)CCN(CC(=O)O)CC2)ccc1[O-].[68Ga+3] [[^68Ga]1h]
bone to blood ratio ([1]; 2 min): 0.9 | bone to muscle ratio ([1]; 2 min): 4.3 | Biodistribution: Blood ([1]; 2 min post injection): 9.69 ± 1.49 % dose/g | Biodistribution: Bone ([1]; 2 min post injection): 8.31 ± 0.84 % dose/g | Biodistribution: Brain ([1]; 2 min post injection): 0.24 ± 0.03 % dose/g | Biodistribution: Heart ([1]; 2 min post injection): 3.10 ± 0.35 % dose/g | Biodistribution: Kidney ([1]; 2 min post injection): 18.2 ± 1.65 % dose/g | Biodistribution: Liver ([1]; 2 min post injection): 1.99 ± 0.29 % dose/g | Biodistribution: Lung ([1]; 2 min post injection): 4.35 ± 0.52 % dose/g | Biodistribution: Muscle ([1]; 2 min post injection): 1.92 ± 0.14 % dose/g | Biodistribution: Pancreas ([1]; 2 min post injection): 1.48 ± 0.27 % dose/g | Biodistribution: Skin ([1]; 2 min post injection): 2.31 ± 0.25 % dose/g | Biodistribution: Spleen ([1]; 2 min post injection): 1.91 ± 0.48 % dose/g | bone to blood ratio ([1]; 30 min): 27 | bone to muscle ratio ([1]; 30 min): 85 | Biodistribution: Blood ([1]; 30 min (0.5 hr) post injection): 0.45 ± 0.07 % dose/g | Biodistribution: Bone ([1]; 30 min (0.5 hr) post injection): 12.1 ± 0.84 % dose/g | Biodistribution: Brain ([1]; 30 min (0.5 hr) post injection): 0.02 ± 0.01 % dose/g | Biodistribution: Heart ([1]; 30 min (0.5 hr) post injection): 0.24 ± 0.12 % dose/g | Biodistribution: Kidney ([1]; 30 min (0.5 hr) post injection): 2.07 ± 0.62 % dose/g | Biodistribution: Liver ([1]; 30 min (0.5 hr) post injection): 0.15 ± 0.05 % dose/g | Biodistribution: Lung ([1]; 30 min (0.5 hr) post injection): 0.31 ± 0.05 % dose/g | Biodistribution: Muscle ([1]; 30 min (0.5 hr) post injection): 0.14 ± 0.04 % dose/g | Biodistribution: Pancreas ([1]; 30 min (0.5 hr) post injection): 0.09 ± 0.03 % dose/g | Biodistribution: Skin ([1]; 30 min (0.5 hr) post injection): 0.39 ± 0.13 % dose/g | Biodistribution: Spleen ([1]; 30 min (0.5 hr) post injection): 0.13 ± 0.03 % dose/g | bone to blood ratio ([1]; 60 min): 112 | bone to muscle ratio ([1]; 60 min): 233 | Biodistribution: Blood ([1]; 60 min (1 hr) post injection): 0.11 ± 0.05 % dose/g | Biodistribution: Bone ([1]; 60 min (1 hr) post injection): 11.9±1.3 % dose/g and 11.9 ± 1.31 % dose/g | Biodistribution: Brain ([1]; 60 min (1 hr) post injection): 0.01 ± 0.00 % dose/g | Biodistribution: Heart ([1]; 60 min (1 hr) post injection): 0.08 ± 0.01 % dose/g | Biodistribution: Kidney ([1]; 60 min (1 hr) post injection): 1.13 ± 0.08 % dose/g | Biodistribution: Liver ([1]; 60 min (1 hr) post injection): 0.07 ± 0.01 % dose/g | Biodistribution: Lung ([1]; 60 min (1 hr) post injection): 0.14 ± 0.03 % dose/g | Biodistribution: Muscle ([1]; 60 min (1 hr) post injection): 0.05 ± 0.01 % dose/g | Biodistribution: Pancreas ([1]; 60 min (1 hr) post injection): 0.05 ± 0.02 % dose/g | Biodistribution: Skin ([1]; 60 min (1 hr) post injection): 0.11 ± 0.02 % dose/g | Biodistribution: Spleen ([1]; 60 min (1 hr) post injection): 0.07 ± 0.01 % dose/g | bone to blood ratio ([1]; 120 min): 305 | bone to muscle ratio ([1]; 120 min): 383 | Biodistribution: Blood ([1]; 120 min post injection): 0.04 ± 0.01 % dose/g | Biodistribution: Bone ([1]; 120 min post injection): 12.0 ± 0.82 % dose/g | Biodistribution: Brain ([1]; 120 min post injection): 0.01 ± 0.01 % dose/g | Biodistribution: Heart ([1]; 120 min post injection): 0.05 ± 0.01 % dose/g | Biodistribution: Kidney ([1]; 120 min post injection): 1.67 ± 0.54 % dose/g | Biodistribution: Liver ([1]; 120 min post injection): 0.09 ± 0.04 % dose/g | Biodistribution: Lung ([1]; 120 min post injection): 0.10 ± 0.01 % dose/g | Biodistribution: Muscle ([1]; 120 min post injection): 0.03 ± 0.00 % dose/g | Biodistribution: Pancreas ([1]; 120 min post injection): 0.04 ± 0.01 % dose/g | Biodistribution: Skin ([1]; 120 min post injection): 0.07 ± 0.01 % dose/g | Biodistribution: Spleen ([1]; 120 min post injection): 0.07 ± 0.01 % dose/g | Biodistribution result in words (organ uptake, retention, excretion) ([1]; normal mice after iv injection): excellent bone uptake and fast kidney excretion | Hydroxyapatite Binding (%) [2]: 96.7 ± 0.9%
